In ChEMBL document CHEMBL6127154, “Pursuing Polypharmacology: Benzothiopyranoindoles as G-Quadruplex Stabilizers and Topoisomerase I Inhibitors for Effective Anticancer Strategies” (ACS Med Chem Lett, 2024) one finds Activity and ΔTm data, which are given here for two compounds.

Assay [1] deals with HCT-116. Nature of the assay: Induction of DNA damage in human HCT-116 cells assessed as increase in 53BP1 foci positive cells incubated for 24 hrs by immunofluorescence staining based analysis. Format: functional, cell-based.
For assay [2], the system named is HCT-116. Nature of the assay: Induction of DNA damage in human HCT-116 cells assessed as increase in gammaH2AX level incubated for 24 hrs by immunofluorescence staining based analysis. Format: functional, cell-based.
For assay [3], the system named is Quadruplex DNA. Put plainly: Thermal stabilization of human Tel26-hy G4 quadruplex DNA assessed as change in melting temperature (deltaT1/2) incubated for 10 mins by circular dichroism spectroscopic analysis (reference value: 55.4 +/- 0.1 degreeC). Format: nucleic-acid assay. A general note: Circular dichroism is widely used to follow secondary structure.
The subject of assay [4] is Quadruplex DNA. Nature of the assay: Thermal stabilization of human Tel23-p G4 quadruplex DNA assessed as change in melting temperature (deltaT1/2) incubated for 10 mins by circular dichroism spectroscopic analysis (reference value: 68.2 +/- 0.1 degreeC). Format: nucleic-acid assay.
For assay [5], the system named is Quadruplex DNA. Put plainly: Thermal stabilization of human c-Kit2 G4 quadruplex DNA assessed as change in melting temperature (deltaT1/2) incubated for 10 mins by circular dichroism spectroscopic analysis (reference value: 62.4 +/-0.1 degreeC). Format: nucleic-acid assay.
The subject of assay [6] is Quadruplex DNA. Nature of the assay: Thermal stabilization of human Tel23-hy G4 quadruplex DNA assessed as change in melting temperature (deltaT1/2) incubated for 10 mins by circular dichroism spectroscopic analysis (reference value: 48 +/- 0.1 degreeC). Format: nucleic-acid assay.
Assay [7] relates to Quadruplex DNA. Nature of the assay: Thermal stabilization of human c-Myc G4 quadruplex DNA assessed as change in melting temperature (deltaT1/2) incubated for 10 mins by circular dichroism spectroscopic analysis (reference value: 70.5 +/- 0.1 degreeC). Format: nucleic-acid assay.

Activity calls are given as the source filed them. No cut-off for these calls is given here.

Regarding `CC[C@@]1(O)C(=O)OCc2c1cc1n(c2=O)Cc2cc3ccccc3nc2-1`, the outcome in the assay on HCT-116 [1] and in the assay with HCT-116 [2] was Active.

With `COc1ccc2cc3[n+](cc2c1OC)CCc1cc2c(cc1-3)OCO2`, the ΔTm was 6.8 °C in the assay on Quadruplex DNA [3]; over 20 °C in the assay with Quadruplex DNA [4]; over 20 °C in the assay on Quadruplex DNA [5]; 12.7 °C in the assay with Quadruplex DNA [6]; 15.5 °C in the assay with Quadruplex DNA [7].

The ΔTm is the change in melting temperature against a reference sample.
